Data as given in the CheMixHub ionic liquid set.

Assay: xn = mol fraction of the nth substance listed

CC(=O)Oc1ccccc1C(=O)O + CC#N + CCCCCC[n+]1ccn(C)c1.[Br-]
viscosity [mPa·s], 101 kPa
Settings	288.15 K	298.15 K	308.15 K	318.15 K
x1 = 0.001647, x3 = 0	0.394	0.349	0.316	0.292
x1 = 0.001682, x3 = 0.004167	0.408	0.37	0.336	0.309
x1 = 0.001814, x3 = 0.0117	0.434	0.393	0.372	0.343
x1 = 0.001864, x3 = 0.008116	0.431	0.388	0.353	0.324
x1 = 0.00335, x3 = 0.00416	0.412	0.373	0.34	0.313
x1 = 0.003412, x3 = 0	0.398	0.353	0.319	0.295
x1 = 0.003448, x3 = 0.01168	0.437	0.396	0.376	0.346
x1 = 0.003521, x3 = 0.008102	0.435	0.391	0.356	0.327
x1 = 0.004495, x3 = 0	0.402	0.355	0.322	0.297
x1 = 0.004647, x3 = 0.004154	0.416	0.376	0.343	0.315
x1 = 0.004832, x3 = 0.01167	0.441	0.399	0.38	0.349
x1 = 0.004834, x3 = 0.008092	0.438	0.395	0.359	0.33
x1 = 0.00569, x3 = 0	0.405	0.358	0.325	0.3
x1 = 0.005813, x3 = 0.004149	0.42	0.38	0.346	0.317
x1 = 0.005963, x3 = 0.008083	0.441	0.398	0.363	0.333
x1 = 0.006109, x3 = 0.01165	0.444	0.402	0.383	0.352
x1 = 0.006963, x3 = 0	0.408	0.362	0.328	0.303
x1 = 0.007083, x3 = 0.004144	0.423	0.383	0.349	0.32
x1 = 0.007249, x3 = 0.008072	0.444	0.401	0.366	0.335
x1 = 0.007314, x3 = 0.01164	0.448	0.406	0.386	0.355
x1 = 0.00845, x3 = 0	0.412	0.365	0.331	0.306
x1 = 0.008753, x3 = 0.004137	0.428	0.387	0.354	0.324
x1 = 0.008914, x3 = 0.008059	0.448	0.405	0.369	0.339
x1 = 0.00934, x2 = 0.979	0.452	0.41	0.39	0.359
x1 = 0.009969, x3 = 0	0.416	0.369	0.334	0.309
x1 = 0.009979, x3 = 0.004132	0.432	0.39	0.356	0.327
x1 = 0.01021, x2 = 0.9782	0.455	0.412	0.392	0.361
x1 = 0.01031, x3 = 0.008047	0.451	0.408	0.372	0.342
x1 = 0.01098, x3 = 0	0.419	0.371	0.337	0.311
x1 = 0.01114, x3 = 0.004127	0.436	0.393	0.359	0.33
x1 = 0.01158, x3 = 0.008037	0.454	0.411	0.375	0.345
x1 = 0.01173, x2 = 0.9767	0.458	0.416	0.396	0.364
x1 = 0.01219, x3 = 0	0.422	0.375	0.34	0.314
x1 = 0.0126, x3 = 0.004121	0.44	0.396	0.362	0.333
x1 = 0.01261, x2 = 0.9794	0.458	0.414	0.378	0.348
x1 = 0.01337, x2 = 0.9751	0.462	0.42	0.4	0.368

CC(=O)[O-].CCCCC[N+](CCCCC)(CCCCC)CCCCC + CCCCCCCCCCCCOS(=O)(=O)[O-].[Na+] + O
viscosity [mPa·s], 100 kPa
Settings	x2 = 1.81e-06, x1 = 0.0001802	x2 = 3.62e-06, x1 = 0.0001802	x2 = 5.42e-06, x1 = 0.0001802	x2 = 7.23e-06, x1 = 0.0001802	x2 = 9.04e-06, x1 = 0.0001802	x2 = 1.085e-05, x1 = 0.0001802	x2 = 1.266e-05, x1 = 0.0001802	x2 = 1.446e-05, x1 = 0.0001802	x2 = 1.627e-05, x1 = 0.0001802	x2 = 1.808e-05, x1 = 0.0001802
293.15 K	1.002	1.003	1.005	1.005	1.007	1.007	1.007	1.007	1.007	1.008
298.15 K	0.89	0.893	0.894	0.896	0.898	0.9	0.902	0.902	0.904	0.904
303.15 K	0.784	0.786	0.789	0.792	0.793	0.796	0.796	0.796	0.798	0.796
308.15 K	0.701	0.703	0.704	0.706	0.707	0.707	0.708	0.708	0.709	0.709
313.15 K	0.636	0.638	0.641	0.643	0.645	0.646	0.646	0.647	0.648	0.648
318.15 K	0.587	0.587	0.589	0.59	0.591	0.593	0.593	0.597	0.598	0.599

CC[n+]1ccn(C)c1.O=S(=O)([N-]S(=O)(=O)C(F)(F)F)C(F)(F)F + CO
100 kPa
Settings	viscosity [mPa·s]
298.15 K, x2 = 0.5988	6.44
308.15 K, x2 = 0.4005	9.17
308.15 K, x2 = 0.8978	1.32
313.15 K, x2 = 0.4005	8.11
313.15 K, x2 = 0.5088	6.09
313.15 K, x2 = 0.6909	3.44
318.15 K, x2 = 0.1965	11.67
323.15 K, x2 = 0.7961	1.82

CC[n+]1ccn(C)c1.O=S(=O)([N-]S(=O)(=O)C(F)(F)F)C(F)(F)F + CCCCCCCCCCCC[n+]1ccn(C)c1.O=S(=O)([N-]S(=O)(=O)C(F)(F)F)C(F)(F)F
100 kPa, x2 = 0
Settings	viscosity [mPa·s]
293 K	36
313 K	18

c1ccccc1 + CCCC[n+]1ccn(C)c1.N#C[S-]
100 kPa, x1 = 1
Settings	viscosity [mPa·s]
298.15 K	0.605
308.15 K	0.527
318.15 K	0.466
328.15 K	0.363

CC[n+]1ccn(C)c1.O=S(=O)([N-]S(=O)(=O)C(F)(F)F)C(F)(F)F + CCOS(=O)(=O)[O-].CC[n+]1ccn(C)c1
298.15 K, 100 kPa
Settings	viscosity [mPa·s]
x1 = 0.1042	95.6
x1 = 0.2975	84.1

CO + CCCC[N+]1(C)CCCC1.O=S(=O)([N-]S(=O)(=O)C(F)(F)F)C(F)(F)F
Settings	viscosity [mPa·s]
293.15 K, 101 kPa, x2 = 0	0.74

CO + C[N+](C)(CCCS(=O)(=O)O)C1CCCCC1.Cc1ccc(S(=O)(=O)[O-])cc1
101 kPa, x2 = 0
Settings	viscosity [mPa·s]
303.15 K	0.5044
308.15 K	0.4775
313.15 K	0.4515
318.15 K	0.4244
323.15 K	0.4033
328.15 K	0.3883

CC(=O)[O-].CCCCC[N+](CCCCC)(CCCCC)CCCCC + CCCCCCCCCCCC[N+](C)(C)C.[Br-] + O
viscosity [mPa·s], 100 kPa
Settings	x2 = 5.424e-05, x1 = 0.0001802	x2 = 0.0001085, x1 = 0.0001801	x2 = 0.0001627, x1 = 0.0001801	x2 = 0.0002169, x1 = 0.0001801	x2 = 0.0002711, x1 = 0.0001801	x2 = 0.0003254, x1 = 0.0001801	x2 = 0.0003796, x1 = 0.0001801	x2 = 0.0004338, x1 = 0.0001801	x2 = 0.000488, x1 = 0.0001801	x2 = 0.0005421, x1 = 0.0001801
293.15 K	1.029	1.031	1.033	1.034	1.034	1.035	1.035	1.036	1.036	1.036
298.15 K	0.921	0.924	0.928	0.928	0.929	0.929	0.93	0.93	0.931	0.931
303.15 K	0.811	0.813	0.816	0.819	0.822	0.825	0.825	0.828	0.829	0.83
308.15 K	0.728	0.731	0.731	0.733	0.734	0.737	0.741	0.745	0.746	0.749
313.15 K	0.659	0.661	0.664	0.666	0.667	0.669	0.669	0.67	0.671	0.671
318.15 K	0.609	0.609	0.611	0.612	0.613	0.615	0.615	0.619	0.62	0.621

CO/N=C(\C(=O)N[C@@H]1C(=O)N2C(C(=O)[O-])=C(CSc3nc(=O)c(=O)[n-]n3C)CS[C@H]12)c1csc(N)n1.[Na+].[Na+] + CCCC[n+]1ccc(C)cc1.[Br-] + O
viscosity [mPa·s], 100 kPa
Settings	x1 = 0.0003495, x2 = 0	x1 = 0.0008732, x2 = 0	x1 = 0.001391, x2 = 0	x1 = 0.002502, x2 = 0	x1 = 0.00312, x2 = 0	x1 = 0.003888, x2 = 0	x1 = 0.004767, x2 = 0	x1 = 0.005484, x2 = 0
288.15 K	1.196	1.273	1.365	1.604	1.745	1.964	2.205	2.45
293.15 K	1.053	1.12	1.2	1.399	1.527	1.701	1.918	2.122
298.15 K	0.935	0.994	1.062	1.231	1.348	1.495	1.674	1.858
303.15 K	0.829	0.885	0.945	1.1	1.195	1.323	1.48	1.638
308.15 K	0.744	0.794	0.849	0.982	1.07	1.184	1.322	1.455

CCCCCC[n+]1ccccc1.N#C[N-]C#N + O
100 kPa
Settings	electrical conductivity [S/m]	viscosity [mPa·s]
298.15 K, x1 = 0.9308	–	50.4
298.15 K, x1 = 0.9582	0.494	–
298.15 K, x1 = 0.9762	0.477	–
298.15 K, x2 = 0.01463	–	56.3
303.15 K, x1 = 0.9663	–	43.33
308.15 K, x1 = 0.924	0.796	–
318.15 K, x1 = 0.9146	–	22.52
318.15 K, x1 = 0.9409	1.09	–
318.15 K, x1 = 0.9663	–	24.43
328.15 K, x1 = 0.9146	–	15.96
328.15 K, x1 = 0.924	1.47	–
328.15 K, x1 = 0.9487	–	16.85
328.15 K, x1 = 0.9762	1.35	–
338.15 K, x1 = 0.9075	1.94	–
338.15 K, x1 = 0.9146	–	12.16
338.15 K, x1 = 0.9409	1.85	–
338.15 K, x2 = 0.01463	–	13.8

CC(=O)[O-].CCC[N+]1(C)CCCC1 + CC#N
298 K, 101 kPa
Settings	electrical conductivity [S/m]
x2 = 0.75	3.18
x2 = 0.775	3.51
x2 = 0.799	3.72
x2 = 0.825	3.86
x2 = 0.849	3.9
x2 = 0.875	3.92
x2 = 0.9	3.85
x2 = 0.911	3.75
x2 = 0.921	3.63
x2 = 0.94	3.35

CC(=O)Nc1ccc(O)cc1 + O + CCCC[n+]1ccn(C)c1.[Br-]
101 kPa, frequency 0.0003 MHz
Settings	electrical conductivity [S/m]
293.15 K, x1 = 0.0005475, x3 = 1.14e-05	0.0067
293.15 K, x1 = 0.0005475, x3 = 1.628e-05	0.0094
293.15 K, x1 = 0.001082, x3 = 4.9e-06	0.003
298.15 K, x1 = 0.0005475, x3 = 9.05e-06	0.0056
298.15 K, x1 = 0.0005475, x3 = 1.447e-05	0.0085
298.15 K, x1 = 0.001082, x3 = 5.63e-06	0.0034
298.15 K, x1 = 0.001082, x3 = 1.162e-05	0.0067
298.15 K, x1 = 0.001082, x3 = 1.635e-05	0.0092
303.15 K, x1 = 0.0005475, x3 = 5.43e-06	0.0036
303.15 K, x1 = 0.0005475, x3 = 1.158e-05	0.0071
303.15 K, x1 = 0.001082, x3 = 5.09e-06	0.0032
303.15 K, x1 = 0.001082, x3 = 1.162e-05	0.0067
303.15 K, x1 = 0.001082, x3 = 1.617e-05	0.0091
308.15 K, x1 = 0.0005475, x3 = 2.71e-06	0.0025
308.15 K, x1 = 0.0005475, x3 = 9.41e-06	0.0073
308.15 K, x1 = 0.001082, x3 = 5.63e-06	0.0038
308.15 K, x1 = 0.001082, x3 = 1.199e-05	0.0075
